Data published in patent US11632948B2, “Recrystallization inhibitor” (THE UNIVERSITY OF WARWICK, priority 2017, dated 2023).
No end group written: not given here.

Assay: not given
Details: from cited references; cited from earlier work

| Compound | IRI activity (literature) |
| --- | --- |
| Nisin A (ITSISLCTPGCKTGALMGCNMKTATCHCSIHVSK; also: lantibiotic, lanthionine rings and dehydro residues not placed; UniProt P13068 24-57, looked up) [a short antimicrobial peptide] | pH dependent IRI activity |
| poly(hydroxyproline) | potent IRI activity |

Assay: Ice recrystallisation inhibition (IRI) SPLAT assay
Details: 30 min at −8° C., relative to PBS control
Protocol: A series of peptides were tested for IRI activity using a SPLAT assay. Briefly, this involved seeding a large number of small ice crystals, which were annealed for 30 minutes at −8° C., before being photographed. The average crystal size was then measured, relative to a PBS control, with smaller values indicating more IRI activity, FIGS. 3B/1C.
Ice recrystallisation inhibition (IRI) activity was measured using a modified splat assay. A 10 μL sample of polymer dissolved in PBS buffer (pH 7.4) was dropped 1.40 m onto a chilled glass coverslip, resting on a thin aluminium block placed on dry ice. Upon hitting the coverslip, a wafer with diameter of approximately 10 mm and thickness 10 μm was formed instantaneously. The glass coverslip was transferred onto the Linkam cryostage and held at −8° C. under N2 for 30 minutes. Photographs were obtained using an Olympus CX 41 microscope with a UIS-2 20 ×/0.45/∞/0-2/FN22 lens and crossed polarizers (Olympus Ltd, Southend-on-Sea, UK), equipped with a Canon DSLR 500D digital camera. Images were taken of the initial wafer (to ensure that a polycrystalline sample had been obtained) and again after 30 minutes. Image processing was conducting using Image J, which is freely available. In brief, five of the largest ice crystals in the field of view were measured and the single largest length in any axis recorded. The average (mean) of these five measurements was then calculated to find the largest grain dimension along any axis. This was repeated for three individual wafers, and the average (mean) of these three values was calculated to give the mean largest grain size (MLGS). The average value was compared to that of a PBS buffer negative control.

| Compound | IRI activity |
| --- | --- |
| PGlu10: poly(glutamic acid) 10-mer (SEQ ID NO: 18), computationally modelled | no IRI activity |
| poly(lysine) (KKKKKKKKKKKKKKKKKKKKKKKKKKKKKKKKKKKKKKKKKKKKKKKKKK; Poly(lysine) with 50 Lys residues) [PLys50] | no IRI |
| poly-L-proline mol wt 1,000-10,000 [PPro10-100] | potent inhibition |
| O=C(O)[C@@H]1CCCN1 [proline, L-proline] | no IRI activity |
| poly(proline) | significant IRI activity |
| poly(glutamic acid) [PGlu110] | no IRI |

Same assay, conditions: comparison

| Compound | IRI activity compared to another polymer |
| --- | --- |
| poly(proline) | more active than poly(hydroxyproline) |
